# Experimental data reported in patent publication US12108719B2, “Methods for creating doubled haploid plants” (Monsanto Technology LLC, priority 2015, dated 2024).
# Assays:
# DH0 plants = assay: Ears classified by number of DH1 seed produced, first 3 co-dominant ears (Example 4); format: in vivo, maize; set-up: key: Class A ears produced approximately 50 seeds; Class B ears produced approximately 20-49 seeds; Class C ears produced approximately 1-20 seeds; Class 0 ears produced zero seeds; “—” represents a situation where a third ear was not formed by the plant
# Source text: When the DH1 ears were harvested in the experiment described in Example 3, four DH0 plants selected randomly from each germplasm were subjected to further scrutiny comprising recording of the approximate number of seeds produced from the first 3 co-dominant ears for each plant. […] In Table 4, ears are assigned to one of 4 categories, depending on the approximate number of seeds they produced: Class A ears produced approximately 50 seeds, Class B ears produced approximately 20-49 seeds, Class C ears produced approximately 1-20 seeds, and Class 0 ears produced zero seeds.
# [1] = test system: maize inbred lines Germplasm A and LH244; assay: Co-dominant ear induction in diploid inbred lines (Example 5); format: in vivo
# Description: Seeds of maize inbred lines Germplasm A and LH244 were planted in soil, germinated, and then transplanted to 10-inch pots after approximately one week, one seedling per pot. The plants were subjected to a co-dominant ear induction treatment at the V8 stage comprising drenching the soil surrounding the roots of each plant with 50 mL of a 2.5% PBZ solution (v/v; 0.4% of active ingredient). The plants were tended in a greenhouse until sexual maturity, then they were self-pollinated. When seed set had completed, the number of co-dominant ears, and the total number of kernels, produced by each plant were counted. Control plants for each germplasm were processed in the same way as the treated groups, except that the control plants were not subjected to the co-dominant ear induction treatment.
smiles,measurement,setting,value
"CC(C)(C)[C@H](O)[C@H](Cc1ccc(Cl)cc1)n1cncn1 (relative stereo) [PBZ, (2S,3S)-1-(4-chlorophenyl)-4,4-dimethyl-2-(1,2,4-triazol-1-yl) pentan-3-ol]",Ears classified by the number of DH1 seed they produced,"DH0 plants; A, Plant 1, 1st ear",C (Class C ears produced approximately 1-20 seeds)
same,Ears classified by the number of DH1 seed they produced,"DH0 plants; A, Plant 1, 2nd ear",B (Class B ears produced approximately 20-49 seeds)
same,Ears classified by the number of DH1 seed they produced,"DH0 plants; A, Plant 1, 3rd ear",C (Class C ears produced approximately 1-20 seeds)
same,Ears classified by the number of DH1 seed they produced,"DH0 plants; A, Plant 2, 1st ear",C (Class C ears produced approximately 1-20 seeds)
same,Ears classified by the number of DH1 seed they produced,"DH0 plants; A, Plant 2, 2nd ear",A (Class A ears produced approximately 50 seeds)
same,Ears classified by the number of DH1 seed they produced,"DH0 plants; A, Plant 2, 3rd ear",C (Class C ears produced approximately 1-20 seeds)
same,Ears classified by the number of DH1 seed they produced,"DH0 plants; A, Plant 3, 1st ear",C (Class C ears produced approximately 1-20 seeds)
same,Ears classified by the number of DH1 seed they produced,"DH0 plants; A, Plant 3, 2nd ear",C (Class C ears produced approximately 1-20 seeds)
same,Ears classified by the number of DH1 seed they produced,"DH0 plants; A, Plant 3, 3rd ear",B (Class B ears produced approximately 20-49 seeds)
same,Ears classified by the number of DH1 seed they produced,"DH0 plants; A, Plant 4, 1st ear",A (Class A ears produced approximately 50 seeds)
same,Ears classified by the number of DH1 seed they produced,"DH0 plants; A, Plant 4, 2nd ear",C (Class C ears produced approximately 1-20 seeds)
same,Ears classified by the number of DH1 seed they produced,"DH0 plants; A, Plant 4, 3rd ear",0 (Class 0 ears produced zero seeds)
same,Ears classified by the number of DH1 seed they produced,"DH0 plants; B, Plant 1, 1st ear",C (Class C ears produced approximately 1-20 seeds)
same,Ears classified by the number of DH1 seed they produced,"DH0 plants; B, Plant 1, 2nd ear",A (Class A ears produced approximately 50 seeds)
same,Ears classified by the number of DH1 seed they produced,"DH0 plants; B, Plant 1, 3rd ear",—
same,Ears classified by the number of DH1 seed they produced,"DH0 plants; B, Plant 2, 1st ear",B (Class B ears produced approximately 20-49 seeds)
same,Ears classified by the number of DH1 seed they produced,"DH0 plants; B, Plant 2, 2nd ear",C (Class C ears produced approximately 1-20 seeds)
same,Ears classified by the number of DH1 seed they produced,"DH0 plants; B, Plant 2, 3rd ear",C (Class C ears produced approximately 1-20 seeds)
same,Ears classified by the number of DH1 seed they produced,"DH0 plants; B, Plant 3, 1st ear",C (Class C ears produced approximately 1-20 seeds)
same,Ears classified by the number of DH1 seed they produced,"DH0 plants; B, Plant 3, 2nd ear",A (Class A ears produced approximately 50 seeds)
same,Ears classified by the number of DH1 seed they produced,"DH0 plants; B, Plant 3, 3rd ear",C (Class C ears produced approximately 1-20 seeds)
same,Ears classified by the number of DH1 seed they produced,"DH0 plants; B, Plant 4, 1st ear",C (Class C ears produced approximately 1-20 seeds)
same,Ears classified by the number of DH1 seed they produced,"DH0 plants; B, Plant 4, 2nd ear",A (Class A ears produced approximately 50 seeds)
same,Ears classified by the number of DH1 seed they produced,"DH0 plants; B, Plant 4, 3rd ear",C (Class C ears produced approximately 1-20 seeds)
same,Ears classified by the number of DH1 seed they produced,"DH0 plants; Control A, Plant 1, 1st ear",B (Class B ears produced approximately 20-49 seeds)
same,Ears classified by the number of DH1 seed they produced,"DH0 plants; Control A, Plant 1, 2nd ear",A (Class A ears produced approximately 50 seeds)
same,Ears classified by the number of DH1 seed they produced,"DH0 plants; Control A, Plant 1, 3rd ear",—
same,Ears classified by the number of DH1 seed they produced,"DH0 plants; Control A, Plant 2, 1st ear",C (Class C ears produced approximately 1-20 seeds)
same,Ears classified by the number of DH1 seed they produced,"DH0 plants; Control A, Plant 2, 2nd ear",B (Class B ears produced approximately 20-49 seeds)
same,Ears classified by the number of DH1 seed they produced,"DH0 plants; Control A, Plant 2, 3rd ear",C (Class C ears produced approximately 1-20 seeds)
same,Ears classified by the number of DH1 seed they produced,"DH0 plants; Control A, Plant 3, 1st ear",A (Class A ears produced approximately 50 seeds)
same,Ears classified by the number of DH1 seed they produced,"DH0 plants; Control A, Plant 3, 2nd ear",C (Class C ears produced approximately 1-20 seeds)
same,Ears classified by the number of DH1 seed they produced,"DH0 plants; Control A, Plant 3, 3rd ear",0 (Class 0 ears produced zero seeds)
same,Ears classified by the number of DH1 seed they produced,"DH0 plants; Control A, Plant 4, 1st ear",B (Class B ears produced approximately 20-49 seeds)
same,Ears classified by the number of DH1 seed they produced,"DH0 plants; Control A, Plant 4, 2nd ear",B (Class B ears produced approximately 20-49 seeds)
same,Ears classified by the number of DH1 seed they produced,"DH0 plants; Control A, Plant 4, 3rd ear",0 (Class 0 ears produced zero seeds)
same,Ears classified by the number of DH1 seed they produced,"DH0 plants; Control B, Plant 1, 1st ear",C (Class C ears produced approximately 1-20 seeds)
same,Ears classified by the number of DH1 seed they produced,"DH0 plants; Control B, Plant 1, 2nd ear",C (Class C ears produced approximately 1-20 seeds)
same,Ears classified by the number of DH1 seed they produced,"DH0 plants; Control B, Plant 1, 3rd ear",B (Class B ears produced approximately 20-49 seeds)
same,Ears classified by the number of DH1 seed they produced,"DH0 plants; Control B, Plant 2, 1st ear",A (Class A ears produced approximately 50 seeds)
same,Ears classified by the number of DH1 seed they produced,"DH0 plants; Control B, Plant 2, 2nd ear",A (Class A ears produced approximately 50 seeds)
same,Ears classified by the number of DH1 seed they produced,"DH0 plants; Control B, Plant 2, 3rd ear",0 (Class 0 ears produced zero seeds)
same,Ears classified by the number of DH1 seed they produced,"DH0 plants; Control B, Plant 3, 1st ear",A (Class A ears produced approximately 50 seeds)
same,Ears classified by the number of DH1 seed they produced,"DH0 plants; Control B, Plant 3, 2nd ear",0 (Class 0 ears produced zero seeds)
same,Ears classified by the number of DH1 seed they produced,"DH0 plants; Control B, Plant 3, 3rd ear",C (Class C ears produced approximately 1-20 seeds)
same,Ears classified by the number of DH1 seed they produced,"DH0 plants; Control B, Plant 4, 1st ear",B (Class B ears produced approximately 20-49 seeds)
same,Ears classified by the number of DH1 seed they produced,"DH0 plants; Control B, Plant 4, 2nd ear",B (Class B ears produced approximately 20-49 seeds)
same,Ears classified by the number of DH1 seed they produced,"DH0 plants; Control B, Plant 4, 3rd ear",C (Class C ears produced approximately 1-20 seeds)
same,Ave. Ears Per Plant,"[1]; Treated, Germplasm A diploid, 50 mL 2.5% PBZ soil drench at V8",8
same,response of average total kernels per plant and average ears per plant vs control,"[1]; both germplasms (Germplasm A, LH244)",more than doubling
